Measurements published in patent publication US4681887A, “Pharmaceutical compositions with a neuroleptic action and process for preparing same” (Richter Gedeon Vegyeszeti Gyar Rt., priority 1985, dated 1987).
Each block holds one molecule with its values, some of them ahead of it.

Columns and labels:
D-2 receptors = biological target: T1, D-2 receptors (Rattus norvegicus, UniProt P61169); experiment: D-2 receptor binding (3H-spiroperidol, rat striatum); design: species or system Hannover Wistar rats; conditions: for D-2/α1 Selectivity ratio: ratio of IC50 D-2 to IC50 α1
T1 construct: Hannover Wistar rats were decapitated and the striatum from their cortex was prepared; from tissue; host or cells: striatum membranes of Hannover Wistar rats
Description: Hannover Wistar rats were decapitated and the striatum from their cortex was prepared. The striata were homogenized in a 10-fold volume of a cold buffer solution (50 mmoles of TRIS HCl, 120 mmoles of NaCl, 2 mmoles of KCl, 1 mmoles of MgCl2 and 5 mmoles of CaCl2, at pH 7.4) and centrifuged at 40000 g for 15 minutes. The thus-obtained sediment was suspended in the buffer in a concentration of 100 ml/g (in a protein concentration of 0.7 to 0.8 mg/ml).
After an incubation at 37° C. for 15 minutes, the samples were filtered through a Whatman GF/B filter and washed 2 times with 5 ml of buffer solution each.
For the determination of the non-specific binding, 1 μmole of (+)-butaclamol was used.
(§1) On using both above-mentioned receptor binding methods, a scintillation solution was applied onto the filter paper in the cuvet and the isotopic radioactivity was measured on the next day.

α1-adrenergic receptor = α1-adrenergic receptor binding (3H-prazosine, rat cortex); design: species or system Hannover Wistar rats; conditions: for IC50: 3H-prazosine, rat cortex, 23° C., 30 minutes; for side-effect on the α1 receptors relative to chloropromazine: from IC50 on α1 receptors
Description: Hannover Wistar rats were decapitated, their cortex were prepared and homogenized in a 20-fold volume of a buffer solution (50 mmoles of TRIS HCl, at pH 8). The membrane was centrifuged at 45000 g twice for 15 minutes and then suspended in the buffer in a concentration of 30 ml/g (in a protein concentration of 1.7 to 1.8 mg/ml).
After an incubation at 23° C. for 30 minutes, the samples were filtered through a Whatman GF/B filter and washed 4 times with 4 ml of buffer solution each.
For the determination of the non-specific binding, 10 μmoles of phentolamine were used.
as §1

[1] = system: conditioned avoidance response; experiment: Inhibition of the conditioned avoidance response (CAR inhibition); type: in vivo, Hannover Wistar rats; conditions: Rattus norvegicus, po, 1 h; rats, p.o., 60 minutes before experiment
Description: (§2) The neuroleptic effect of the compounds was shown by investigations on the central nervous system of Hannover Wistar rats and CFLP mice. The compounds to be tested were orally administered in a dose of 5 ml/kg of body-weight to rats or in a dose of 10 ml/kg of body-weight to mice, respectively at 60 minutes before beginning the experiment.
(§3) The compounds to be tested were suspended in TWEEN 80 and diluted to the desired concentration by adding physiological saline solution.
(§4) The results are expressed either as percentages, or ED50 values calculated by using the probit analysis are given together with the 95% fiducial (confidential) limits (J. T. Litchfield and F. Wilcoxon: J. Pharmacol. 96, 99 (1949)).
Male rats weighing 140 to 160 g were conditioned for 10 days in an automated six-channel shuttle box (D. Bovet et. al.: Neuropsychopharmacology, Vol. 2., p. 142 Elsevier Publishing House, Amsterdam, 1961).
Each one session consisted of 6 cycles; the time of a partial cycle was: 15 seconds for intersignal time, 15 seconds for light stimulus, 10 seconds for light stimulus and footshock (0.8 mA). […]

catalepsy = experiment: Investigation of the cataleptogenic effect; type: in vivo, Hannover Wistar rats; conditions: Rattus norvegicus, po; rats, observed hourly for 5 hours
Description: as §2, §3, §4
The method of G. Stille and H. Launer Arzneim.-forsch. 21, 252 (1971) was used for this study.
Male rats weighing 90 to 110 g (n=5) were treated with different doses of the compounds to be tested, then the number of the animals showing catalepsy was hourly observed for 5 hours.

[2] = system: amphetamine group toxicity; experiment: Investigation of the amphetamine group toxicity; type: in vivo, CFLP mice; conditions: d-amphetamine 25 mg/kg i.p., 24 hours
Description: as §2, §3, §4
The method of C. D. Proctor et al. (Arch. Int. Pharmacodyn. Ther. 163, 74 (1966)) was used for this study.
The examination was carried out on mice of both sexes weighing 22 to 27 g (n=5). At the […], d-amphetamine in a dose of 25 mg/kg was intraperitoneally given to the animals tightly closed together (25 cm^2 /mouse) and the percentage of the perished animals was registered after 24 hours.

[3] = system: hypermotility induced by L-Dopa; experiment: Inhibition of the hypermotility induced by L-Dopa; type: in vivo, CFLP mice; conditions: mice, 30 mg/kg p.o., nialamide 40 mg/kg and L-Dopa 100 mg/kg i.p., difference from control
Description: as §2, §3, §4
The method of N. P. Plotnikoff et al. ("The Thyroid Axis, Drugs and Behavior", Raven Press, N.Y., pp. 103-113 (1974)) was used for this study.
Male mice (n=15) weighing 18 to 21 g were intraperitoneally treated with 40 mg/kg of nialamide and after 60 minutes, the substances to be tested were administered in a dose of 30 mg/kg. Thirty minutes later, 100 mg/kg of L-Dopa were intraperitoneally administered. The locomotor activity of the animals was measured by using an LKB Animex DSE motimeter in each 30th minute for 2 hours. The results are given as the percentage of the difference from the control.

apomorphine hypothermia = experiment: Investigation of the apomorphine hypothermia-reverting effect; type: in vivo, Hannover Wistar rats; conditions: rats, 10 mg/kg p.o., apomorphine 5 mg/kg i.p.
Description: as §2, §3, §4
The method of A. Barnett et al. (Arch. Int. Pharmacodyn. Ther. 198, 242 (1972)) was used for this study.
The rectal temperature of rats (n=5) was determined by using an Ellab thermometer (E3) before administering the substances to be tested in a dose of 10 mg/kg. Thereafter, 5 mg/kg of apomorphine were intraperitoneally given and the temperature of the animals was hourly registered for 3 hours.

asphyxial anoxia = experiment: Investigation of the asphyxial anoxia; type: in vivo, CFLP mice; conditions: Mus musculus, po, 1 h; mice, survival time longer by 30% than control counted as protected
Description: as §2, §3, §4
The method of C. Caillard et al. (Life Sci. 16, 1607 (1975)) was used for this study.
Mice (n=5) of both sexes weighing 22 to 24 g were starved for 16 hours, then treated with 50 mg/kg dose of the substances to be tested. After 60 minutes, the animals were placed in tightly closed glass bottles of 100 ml volume and the survival time was registered.

central dopaminergic = conditions: Acta Pharm. Suec. 1983, 111-119; cited from earlier work

T1 sequence (P61169 whole entry): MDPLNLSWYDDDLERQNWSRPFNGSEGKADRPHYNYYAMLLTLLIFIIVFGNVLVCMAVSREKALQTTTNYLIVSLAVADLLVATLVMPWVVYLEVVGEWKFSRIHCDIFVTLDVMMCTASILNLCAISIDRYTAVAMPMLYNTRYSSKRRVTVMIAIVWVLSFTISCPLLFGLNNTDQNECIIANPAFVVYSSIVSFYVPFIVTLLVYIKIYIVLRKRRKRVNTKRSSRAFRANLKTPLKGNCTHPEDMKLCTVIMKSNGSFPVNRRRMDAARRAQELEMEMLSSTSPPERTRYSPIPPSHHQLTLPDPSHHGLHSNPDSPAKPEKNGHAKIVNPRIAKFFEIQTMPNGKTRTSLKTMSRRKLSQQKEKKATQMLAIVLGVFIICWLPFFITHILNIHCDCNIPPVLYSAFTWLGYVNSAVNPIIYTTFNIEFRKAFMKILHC

Structure (SMILES): CN1C[C@H](CO)C=C2c3cccc4[nH]c(Br)c(c34)C[C@H]21.O=C(O)/C=C\C(=O)O [2-Bromolysergol maleate]
IC50 (D-2 receptors): 76.5 nM
D-2/α1 Selectivity ratio (D-2 receptors): 3.2
IC50 (α1-adrenergic receptor): 24.1 nM
ED50 [1]: 2.7 mg/kg
ED50 (catalepsy): 10.8 mg/kg
Amphetamine group tox., mice died (footnote *) ([2]; 20 mg/kg p.o.): 10%
L-Dopa induced hypermot. inhibition % (60 min.) [3]: -60%
L-Dopa induced hypermot. inhibition % (120 min.) [3]: -65%
Apomorphine hypothermia, difference of temperature change vs apomorphine (60 min.) (apomorphine hypothermia): +1.9 °C
Apomorphine hypothermia, difference of temperature change vs apomorphine (120 min.) (apomorphine hypothermia): +2.4 °C
ED50 (asphyxial anoxia): 35.6 mg/kg

Structure (SMILES): CCN(CC)C(=O)NC1C=C2c3cccc4[nH]c(Br)c(c34)CC2N(C)C1 (stereo not drawn) [2-Bromolysuride, reference compound]
ED50 (catalepsy): 3.3 mg/kg

Structure (SMILES): CN1C[C@H](CO)C=C2c3cccc4[nH]c(Cl)c(c34)C[C@H]21.O=C(O)/C=C\C(=O)O [2-Chlorolysergol maleate]
IC50 (D-2 receptors): 5.3 nM
D-2/α1 Selectivity ratio (D-2 receptors): 0.12
IC50 (α1-adrenergic receptor): 45.4 nM
ED50 [1]: 3.4 mg/kg
ED50 (catalepsy): 13.6 mg/kg
ED50 ([2]; Mus musculus, po, mice, p.o., read-out: Amphetamine group tox. ED50): 28.9 mg/kg
L-Dopa induced hypermot. inhibition % (60 min.) [3]: -47%
L-Dopa induced hypermot. inhibition % (120 min.) [3]: -50%
Apomorphine hypothermia, difference of temperature change vs apomorphine (60 min.) (apomorphine hypothermia): +0.9 °C
Apomorphine hypothermia, difference of temperature change vs apomorphine (120 min.) (apomorphine hypothermia): +1.1 °C
ED50 (asphyxial anoxia): 39.8 mg/kg

Structure (SMILES): CN1C[C@H](CO)C=C2c3cccc4[nH]c(Br)c(c34)C[C@H]21 [2-bromolysergol]
side-effect on the α1 receptors relative to chloropromazine (α1-adrenergic receptor): somewhat lower
central dopaminergic agonist activity (central dopaminergic): inactive

Structure (SMILES): CN1C[C@H](CO)C=C2c3cccc4[nH]c(Cl)c(c34)C[C@H]21 [2-chlorolysergol]
D-2/α1 selectivity ratio relative to chloropromazine (D-2 receptors): ten times lower
dopaminergic (D-2) activity relative to chloropromazine (D-2 receptors; from IC50 on D-2 receptors): three times as high
side-effect on the α1 receptors relative to chloropromazine (α1-adrenergic receptor): one-third
central dopaminergic agonist activity (central dopaminergic): inactive

IC50 (α1-adrenergic receptor): 15.8 nM
Structure (SMILES): CN(C)CCCN1c2ccccc2Sc2ccc(Cl)cc21 [Chloropromazine, reference compound]
